pKd: −log10 of the molar value. Read-outs that look alike come from different tables or passages of the source.

The record followed here is patent EP2955182A1, “Pyridazinones for the treatment of cancer” (Max-Planck-Gesellschaft zur Förderung der Wissenschaften …, priority 2014, dated 2015).

The target in the assay is PDEδ (Homo sapiens, UniProt O43924). Kind of assay: Fluorescence polarization competition binding assay (displacement titration of labeled Atorvastatin-probe). The source says:
Example C.2: Displacement titrations of labeled Atorvastatin-probe for the determination of KD values:
Table 3. KD values for compounds of general formula (I) as determined by means of fluorescence polarization assay
In general terms: Fluorescence polarisation rises when a labelled molecule tumbles more slowly, as on binding a larger partner.

[1] abbreviates: fluorescence polarization assay, displacement of fluorescent-tagged Atorvastatin analog from PDEδ, read-out: KD.

In general, pKd refers to the negative decadic logarithm of the Kd, by convention in mol/L. In the case of `Cc1nn(CCCC(=O)NCc2ccccc2)c(=O)c2nn(-c3ccccc3)c(C)c12` [Compound 31, N-benzyl-4-(3,4-dimethyl-7-oxo-2-phenyl-2H-pyrazolo[3,4-d]pyridazin-6(7H)-yl)butanamide], the pKd under setting [1] is 7.00 to 7.52.
As to `Cc1ccc(-n2nc3c(=O)n(CCCC(=O)NCCc4cccc(Cl)c4)nc(C)c3c2C)cc1` [Compound 49, N-(3-chlorophenethyl)-4-(3,4-dimethyl-7-oxo-2-(p-tolyl)-2H-pyrazolo[3,4-d]pyridazin-6(7H)-yl)butanamide], the pKd under setting [1] was above 7.52.
In the case of `Cc1c2cnn(-c3ccccc3)c(=O)c2c(C)n1CCCc1nc(-c2ccccc2)no1` [Compound 16, 5,7-dimethyl-2-phenyl-6-(3-(3-phenyl-1,2,4-oxadiazol-5-yl)propyl)-2,6-dihydro-1H-pyrrolo[3,4-d]pyridazin-1-one], the negative logarithm of the Kd (pKd) under setting [1] is 6.00 to 7.00.
In the case of `Cc1c(Cl)cccc1NC(=O)CCCn1nc(C)c2c(C)n(-c3ccccc3)nc2c1=O` [Compound 29, N-(3-chloro-2-methylphenyl)-4-(3,4-dimethyl-7-oxo-2-phenyl-2H-pyrazolo[3,4-d]pyridazin-6(7H)-yl)butanamide], the pKd (fluorescence polarization assay, displacement of fluorescent-tagged Atorvastatin analog from PDEδ) is above 7.52.
`Cc1c2cnn(-c3ccccc3)c(=O)c2c(C)n1CCCC(=O)NC1CC1` [Compound 9, N-cyclopropyl-4-(5,7-dimethyl-1-oxo-2-phenyl-1H-pyrrolo[3,4-d]pyridazin-6(2H)-yl)butanamide]: the pKd under setting [1] was 6.00 to 7.00.
As to `Cc1ccc(-c2noc(CCCn3c(C)c4cnn(-c5ccccc5)c(=O)c4c3C)n2)cc1` [Compound 17, 5,7-dimethyl-2-phenyl-6-(3-(3-(p-tolyl)-1,2,4-oxadiazol-5-yl)propyl)-2,6-dihydro-1H-pyrrolo[3,4-d]pyridazin-1-one], under setting [1], the pKd was below 6.00.
With `Cc1c2cnn(-c3ccccc3)c(=O)c2c(C)n1CCCc1nnc(-c2ccc(F)cc2)o1` [Compound 27, 6-(3-(5-(4-fluorophenyl)-1,3,4-oxadiazol-2-yl)propyl)-5,7-dimethyl-2-phenyl-2,6-dihydro-1H-pyrrolo[3,4-d]pyridazin-1-one], the pKd under setting [1] was 6.00 to 7.00.
Consider `Cc1ccc(CCNC(=O)CCCn2nc(C)c3c(C)n(-c4ccccc4)nc3c2=O)cc1` [Compound 37, 4-(3,4-dimethyl-7-oxo-2-phenyl-2H-pyrazolo[3,4-d]pyridazin-6(7H)-yl)-N-(4-methylphenethyl)butanamide], for which, under setting [1], the negative logarithm of the Kd (pKd) was above 7.52.
`Cc1ccc(-n2nc3c(=O)n(CCCC(=O)NCc4cccnc4)nc(C)c3c2C)cc1` [Compound 41, 4-(3,4-dimethyl-7-oxo-2-(p-tolyl)-2H-pyrazolo[3,4-d]pyridazin-6(7H)-yl)-N-(pyridin-3-ylmethyl)butanamide]: under setting [1], the pKd was 6.00 to 7.00.
Consider `Cc1c2cnn(-c3ccccc3)c(=O)c2c(C)n1CCCC(=O)NC1CCCCC1C` (centres unmarked) [Compound 13, 4-(5,7-dimethyl-1-oxo-2-phenyl-1H-pyrrolo[3,4-d]pyridazin-6(2H)-yl)-N-(2-methylcyclohexyl)butanamide], for which the pKd under setting [1] is above 7.52.
On the same count and under the same terms, with `Cc1c2cnn(-c3ccccc3)c(=O)c2c(C)n1CCCc1nc(-c2ccc(F)cc2)no1` [Compound 21, 6-(3-(3-(4-fluorophenyl)-1,2,4-oxadiazol-5-yl)propyl)-5,7-dimethyl-2-phenyl-2,6-dihydro-1H-pyrrolo[3,4-d]pyridazin-1-one] the figure was 6.00 to 7.00; with `Cc1ccc(-n2nc3c(=O)n(CCCC(=O)NCCc4ccc(Cl)cc4)nc(C)c3c2C)cc1` [Compound 48, N-(4-chlorophenethyl)-4-(3,4-dimethyl-7-oxo-2-(p-tolyl)-2H-pyrazolo[3,4-d]pyridazin-6(7H)-yl)butanamide], above 7.52.
In turn, `Cc1ccc(-n2nc3c(=O)n(CCCC(=O)NCc4ccccc4)nc(C)c3c2C)cc1` [Compound 42] gave a negative-log Kd (pKd) above 7.52.
For `Cc1c2cnn(-c3ccccc3)c(=O)c2c(C)n1CCCC(=O)NC1CCCC(C)C1C` (centres unmarked) [Compound 14, 4-(5,7-dimethyl-1-oxo-2-phenyl-1H-pyrrolo[3,4-d]pyridazin-6(2H)-yl)-N-(2,3-dimethylcyclohexyl)butanamide], under setting [1], the pKd was above 7.52.
